Reference: US20140335050A1, “METHODS, COMPOSITIONS, AND KITS FOR THE TREATMENT OF CANCER” (The General Hospital Corporation, priority 2011, published 2014)

Legend:
[1] = tested on: MALME-3M melanoma cell line; assay: Antibody staining and flow cytometry (intracellular Melan-A/MART-1, gp100, TRP-2; surface MHC Class I); format: cell-based, human; details: for MHC Class I, geometric mean of surface staining (W6/32): MALME, three days, IFN-β 5000 Units/ml
Procedure: Cells were fixed with 1% formaldehyde, permeabilized with 0.1% saponin, stained with monoclonal antibodies to melanocyte antigens. Antibodies were obtained with specificity for: MART-1 from Vector Labs (Burlingame, Calif.); gp100 HMB45 from DakoCytomation (Carpinteria, Calif.) and then visualized with goat anti-mouse FITC-conjugated secondary antibody from Invitrogen (Fredrick, Md.). The level of EGFP was determined by flow cytometry of unfixed cells that were washed and resuspended in 1×PBS.
Cells were plated at a density of 1×10^5 in 1 ml of medium in a 24-well plate and cultured for varying times as indicated in results. […] After incubation, cells were collected by trypsinization and then evaluated by flow cytometry.
(§1) Intracellular staining and flow cytometric analyses of cytoplasmic Melan-A/MART-1, and gp100 expression were performed as described previously. Cells were fixed with 1% formaldehyde, permeabilized with 0.1% saponin, stained with monoclonal antibodies to melanocyte antigens. Antibodies were obtained with specificity for: Melan-A/MART-1 from Vector Labs (Burlingame, Calif.); gp100/HMB45 from DakoCytomation (Carpinteria, Calif.) and then visualized with goat anti-mouse FITC-conjugated secondary antibody from Invitrogen (Frederick, Md.). The level of EGFP was determined by flow cytometry of unfixed cells washed and resuspended in 1×PBS. Surface staining of MHC Class I was carried out using the antibody W6/32 on cells harvested with Cell Stripper from MediaTech Inc. (Manassas, Va.) and carried out on ice.

[2] = tested on: B16 murine melanoma cell line; assay: Antibody staining and flow cytometry (intracellular gp100, TRP-2; surface Class I with H2kb antibody); format: cell-based, mouse; details: 3 days, 17-AEP 0.5, PU-H71 0.15, CCT018159 2.5 μg/ml
Source text: To further evaluate enhancement of immune recognition of cancer cells by inhibition of Hsp90 function, it was shown that a total of twelve different Hsp90 inhibitors were active in several molecular and cellular assays on a series of cell lines, including eleven human melanomas, the murine B16 melanoma, and two human gliomas. […] The melanomas all express varying levels of differentiation antigens Melan-A/MART-1, gp100 and TRP-2, as well as the MHC-Class I antigen (as evidenced by W6/32 antibody staining) that is required for T cell recognition of the tumor cells. Each of these antigens is enhanced by all of the Hsp90 inhibitors. […] Similar to the human counterparts, the B16 mouse tumor also can be induced to express enhanced antigen levels upon 3-day exposure to each of the Hsp90 inhibitors (Table 16). The mouse H-2 Class I antigen is likewise induced by the Hsp90 inhibitors.
General culture conditions for cell propagation and the origins of most of the melanoma cell lines have been previously described. Melanoma cells were cultured in DMEM with 10% FBS. The glioma cell lines U87 MG and U118 MG were obtained from the American Type Culture Collection (ATCC). The B16 murine melanoma cell line was provided by Dr. Andrew Hurwitz and has been previously described. The T cell receptor (TCR)-negative Jurkat T cell line derivative J.RT3-T3.5 was obtained from ATCC. The construction of the J.RT3-T3.5 cell line expressing a Melan-A/MART-1 specific TCR has been described previously. T cells were cultured in RPMI with 10% FBS. IFN-beta-1a (Avonex) was obtained from Biogen-Idec (Cambridge, Mass.) and reconstituted according to the manufacturer's recommendations. The Hsp90 inhibitor radicicol was purchased from A.G. Scientific (San Diego, Calif.). Novobiocin was ordered from BioMol (Plymouth Meeting, Pa.). 17-DMAG was obtained from LC laboratories (Woburn, Mass.). 17-AEP-AP was purchased from InVivoGen (San Diego, Calif.). […] Gedunin, CCT018159, and celastrol were purchased from Tocris (Ellisville, Mo.). Selleck Chemicals (Houston, Tex.) provided NVP-AUY922 and BIIB021.
(§2) Cells were plated at a density of 1×10^5 in 1 ml of medium in a 24-well plate and cultured for varying times as indicated in results. Typically, 3 days of culture in the presence of Hsp90 inhibitors was optimal for the functional studies performed. After incubation, cells were collected by trypsinization and then evaluated by flow cytometry.
as §1

[3] = tested on: MM96L+ melanoma cell line; assay: Intracellular antibody staining and flow cytometry (Melan-A/MART-1, gp100/HMB45); format: cell-based, human; details: MM96L+ (BRAF M/WT, NRAS WT); 3 days; 17-AEP 1.00, CCT018159 5.00, PU-H71 0.30 μg/ml
Procedure: (§3) Several cell lines expressing varying native-sequences, (wild-type (WT) or mutant (M) alleles of these genes were evaluated), to determine if there is a relationship between levels of Hsp90 inhibitor-mediated antigen up-regulation and BRAF and NRAS mutational status. Mutant status of the NRAS and BRAF loci were determined previously.
as §2
as §1, with “Surface staining of MHC Class I was carried out using the antibody W6/32 on cells harvested with Cell Stripper from MediaTech Inc. (Manassas, Va.) and carried out on ice.” left out

MM455 melanoma cell line = assay: Intracellular antibody staining and flow cytometry (gp100/HMB45); format: cell-based, human; details: MM455 (BRAF M/WT, NRAS WT); 3 days; 17-AEP 0.50, CCT018159 2.50, PU-H71 0.25 μg/ml
Procedure: as §3, §2
as §1, with “Surface staining of MHC Class I was carried out using the antibody W6/32 on cells harvested with Cell Stripper from MediaTech Inc. (Manassas, Va.) and carried out on ice.” left out

Roth melanoma cell line = assay: as above; format: cell-based, human; details: Roth (BRAF WT, NRAS M/M); 3 days; 17-AEP 0.50, CCT018159 2.50, PU-H71 0.25 μg/ml
Procedure: as §3, §2
as §1, with “Surface staining of MHC Class I was carried out using the antibody W6/32 on cells harvested with Cell Stripper from MediaTech Inc. (Manassas, Va.) and carried out on ice.” left out

[4] = tested on: EBV-19 B cell lymphoma cells; assay: Surface antibody staining and flow cytometry (MHC Class I/II); format: cell-based, human; details: three days, IFN-β 5000 Units/ml
Procedure: as §1
(§4) For surface staining of HLA Class I and II antigens, cells were harvested using CellStripper™ from Mediatech (Manassas, Va.). All staining steps were performed on ice. Following a first incubation with antibody to Class I (W6/32) or Class II (L243) for 30 minutes. Stained cells were washed twice with cold PBS and then stained with a goat anti-mouse FITC secondary antibody to allow for quantitative analysis by flow cytometry. For evaluation of cytoplasmic antigens, including Melan-A/MART-1 and gp100, cells were first fixed in paraformaldehyde and permeabilized with saponin as previously described. Staining for cytoplasmic antigens was carried out at room temperature (22° C.).

tumor cell lines = assay: MHC Class I and Class II surface staining, statements over a panel of tumor cell lines; format: cell-based, human; details: HeLa, MCF-7, U2-OS, MU-89, U118, Jurkat, Raji (Table 19)
Procedure: as §4

[5] = MALME-3M, 3 days, IFN-beta 5000 Units/ml, 17-AEP 1.0, PU-H71 0.3, CCT018159 10.0 μg/ml
[6] = MALME-3M (BRAF M/WT, NRAS WT), 3 days, 17-AEP 0.25, CCT018159 5.00, PU-H71 0.30 μg/ml

SMILES | Class I, geometric mean of surface staining (W6/32) [1, 5] | MART-1, geometric mean of intracellular staining [1, 5] | TRP-2, geometric mean of intracellular staining [1, 5] | gp100, geometric mean of intracellular staining [1, 5] | MHC Class I, geometric mean of surface staining (W6/32) [1] | Class I, geometric mean of surface staining (H2kb) [2] | TRP-2, geometric mean of intracellular staining [2] | gp100, geometric mean of intracellular staining [2] | further results
CO[C@H]1/C=C\C=C(/C)C(=O)NC2=CC(=O)C(NCCN3CCCC3)=C(C[C@@H](C)C[C@H](OC)[C@H](O)[C@@H](C)/C=C(\C)[C@@H]1OC(N)=O)C2=O [17-AEP] | 105 | 205 | 256 | 839 | 105 | 13 | 288 | 420 | –
CCc1cc(-c2n[nH]c(C)c2-c2ccc3c(c2)OCCO3)c(O)cc1O [CCT018159] | 72 | 291 | 222 | 823 | 72 | 16 | 364 | 414 | HMB45, level of induction relative to untreated control cells [1, 6]: 3.63; MART-1, level of induction relative to untreated control cells [1, 6]: 2.48; Class I, fold increase relative to untreated control [1, 5]: 1.6 fold; MART-1, fold increase relative to untreated control [1, 5]: 2.5 fold; TRP-2, fold increase relative to untreated control [1, 5]: 2.1 fold; gp100, fold increase relative to untreated control [1, 5]: 3.6 fold; Class I, fold increase relative to untreated control [2]: 6.8 fold; TRP-2, fold increase relative to untreated control [2]: 3.9 fold; gp100, fold increase relative to untreated control [2]: 5.2 fold; HMB45, level of induction relative to untreated control cells [3]: 1.81; MART-1, level of induction relative to untreated control cells [3]: 3.04; HMB45, level of induction relative to untreated control cells (MM455 melanoma cell line): 1.16; HMB45, level of induction relative to untreated control cells (Roth melanoma cell line): 1.95
CC(C)NCCCn1c(Sc2cc3c(cc2I)OCO3)nc2c(N)ncnc21 [PU-H71] | 137 | 226 | 279 | 511 | 137 | 14 | 360 | 595 | MHC Class II, geometric mean of surface staining (L2443) ([4]; IFN-γ 100 ng/ml, PU-H71 0.3 mg/ml): 114; MHC Class I, geometric mean of surface staining (W6/32) ([4]; IFN-γ 100 ng/ml, PU-H71 0.3): 124; MHC Class I, geometric mean of surface staining (W6/32) ([4]; PU-H71 0.075-0.3): 119; Class II MHC expression over the tumor panel (tumor cell lines): no induction
